Target: Histamine H4 receptor (Homo sapiens, UniProt Q9H3N8)
Test: Radioligand Binding Assay
Conditions: pH 7.5; 25 °C
Method: The Ki values were calculated based on an experimentally determined appropriate Kd value according to Cheng and Prusoff.

Histamine H4 receptor, sequence (Q9H3N8 whole entry): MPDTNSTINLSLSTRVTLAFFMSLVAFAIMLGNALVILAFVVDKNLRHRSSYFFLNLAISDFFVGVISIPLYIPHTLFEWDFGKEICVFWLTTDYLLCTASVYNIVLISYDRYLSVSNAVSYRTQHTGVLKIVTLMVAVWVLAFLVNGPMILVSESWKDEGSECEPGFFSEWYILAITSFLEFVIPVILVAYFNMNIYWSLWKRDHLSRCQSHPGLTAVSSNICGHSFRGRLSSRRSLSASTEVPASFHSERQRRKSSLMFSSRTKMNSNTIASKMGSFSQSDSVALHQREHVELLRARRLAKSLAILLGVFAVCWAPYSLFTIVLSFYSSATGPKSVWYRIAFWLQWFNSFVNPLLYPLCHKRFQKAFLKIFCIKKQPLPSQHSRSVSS

Compound: CN1CCN(CCCOc2ccc(-c3nc4cc(Cl)ccc4[nH]3)cc2)CC1 [5-chloro-2-{4-[3-(4-methylpiperazin-1-yl)propoxy]phenyl}-1H-1,3-benzodiazole]
- Ki: 124 nM

Source: BindingDB's records for doi:10.1016/j.bmcl.2006.08.117 (Johnson & Johnson Pharmaceutical, 2006)
